# Measured values taken from the NIST ThermoML archive (doi:10.1016/j.jct.2018.07.023).
# Where “and” joins values, the source holds several entries; their conditions need not be identical. Equal entries are not always repeated. ± gives the expanded uncertainty stated by the source.
# What was measured:
# [1] = Molar enthalpy of transition or fusion; conditions: Crystal; DSC
# [2] = molar enthalpy of vaporization or sublimation; conditions: Static calorimetry
compound,measurement,setting,value
COc1cc(C=O)ccc1O [vanillin],Molar enthalpy of transition or fusion,[1],5.47 ± 0.215 kcal/mol
same,molar enthalpy,"[2]; 298.15 K, Crystal",23.8 ± 0.645 kcal/mol
same,molar enthalpy,"[2]; 375.81 K, Liquid",17.9 ± 0.574 kcal/mol
same,vapor or sublimation pressure,"303.13 K, Crystal, Calculated from knudsen effusion weight loss",6.6e-05 ± 2e-05 kPa and 6.5e-05 ± 2e-05 kPa
same,vapor or sublimation pressure,"305.32 K, Crystal, Calculated from knudsen effusion weight loss",8.9e-05 ± 2e-05 kPa and 8.8e-05 ± 2e-05 kPa
same,vapor or sublimation pressure,"307.19 K, Crystal, Calculated from knudsen effusion weight loss",0.000112 ± 2e-05 kPa and 0.000113 ± 2e-05 kPa and 0.000114 ± 2e-05 kPa
same,vapor or sublimation pressure,"309.13 K, Crystal, Calculated from knudsen effusion weight loss",0.000144 ± 2.1e-05 kPa and 0.000142 ± 2.1e-05 kPa and 0.000145 ± 2.1e-05 kPa
same,vapor or sublimation pressure,"311.35 K, Crystal, Calculated from knudsen effusion weight loss",0.000185 ± 2.1e-05 kPa and 0.000182 ± 2.1e-05 kPa and 0.000187 ± 2.1e-05 kPa
same,vapor or sublimation pressure,"313.2 K, Crystal, Calculated from knudsen effusion weight loss",0.000235 ± 2.2e-05 kPa and 0.000234 ± 2.2e-05 kPa and 0.000236 ± 2.2e-05 kPa
same,vapor or sublimation pressure,"315.11 K, Crystal, Calculated from knudsen effusion weight loss",0.000292 ± 2.3e-05 kPa and 0.00029 ± 2.2e-05 kPa and 0.000294 ± 2.3e-05 kPa
same,vapor or sublimation pressure,"317.29 K, Crystal, Calculated from knudsen effusion weight loss",0.000384 ± 2.4e-05 kPa and 0.000383 ± 2.4e-05 kPa
same,vapor or sublimation pressure,"319.19 K, Crystal, Calculated from knudsen effusion weight loss",0.000472 ± 2.6e-05 kPa and 0.000474 ± 2.6e-05 kPa and 0.000478 ± 2.6e-05 kPa
same,vapor or sublimation pressure,"320.95 K, Crystal, Closed cell (Static) method",0.00058 ± 0.00011 kPa
same,vapor or sublimation pressure,"321.11 K, Crystal, Calculated from knudsen effusion weight loss",0.000597 ± 2.9e-05 kPa and 0.000586 ± 2.9e-05 kPa and 0.000599 ± 2.9e-05 kPa
same,vapor or sublimation pressure,"322.92 K, Crystal, Closed cell (Static) method",0.00072 ± 0.00012 kPa
same,vapor or sublimation pressure,"323.29 K, Crystal, Calculated from knudsen effusion weight loss",0.000759 ± 3.4e-05 kPa and 0.00075 ± 3.3e-05 kPa and 0.000765 ± 3.4e-05 kPa
same,vapor or sublimation pressure,"324.92 K, Metastable liquid, Closed cell (Static) method",0.00192 ± 0.00013 kPa
same,vapor or sublimation pressure,"324.98 K, Crystal, Closed cell (Static) method",0.00092 ± 0.00012 kPa
same,vapor or sublimation pressure,"325.2 K, Crystal, Calculated from knudsen effusion weight loss",0.000955 ± 3.9e-05 kPa and 0.000953 ± 3.9e-05 kPa and 0.00094 ± 3.9e-05 kPa
same,vapor or sublimation pressure,"326.9 K, Crystal, Closed cell (Static) method",0.00114 ± 0.00012 kPa
same,vapor or sublimation pressure,"326.91 K, Metastable liquid, Closed cell (Static) method",0.00226 ± 0.00014 kPa
same,vapor or sublimation pressure,"328.87 K, Metastable liquid, Closed cell (Static) method",0.00268 ± 0.00015 kPa
same,vapor or sublimation pressure,"328.94 K, Crystal, Closed cell (Static) method",0.00143 ± 0.00013 kPa
same,vapor or sublimation pressure,"330.87 K, Metastable liquid, Closed cell (Static) method",0.00316 ± 0.00017 kPa
same,vapor or sublimation pressure,"330.89 K, Crystal, Closed cell (Static) method",0.00175 ± 0.00013 kPa
same,vapor or sublimation pressure,"332.83 K, Metastable liquid, Closed cell (Static) method",0.00373 ± 0.00019 kPa
same,vapor or sublimation pressure,"332.87 K, Crystal, Closed cell (Static) method",0.00215 ± 0.00014 kPa
same,vapor or sublimation pressure,"334.8 K, Metastable liquid, Closed cell (Static) method",0.00439 ± 0.00021 kPa
same,vapor or sublimation pressure,"334.84 K, Crystal, Closed cell (Static) method",0.00266 ± 0.00015 kPa
same,vapor or sublimation pressure,"336.81 K, Metastable liquid, Closed cell (Static) method",0.00517 ± 0.00023 kPa
same,vapor or sublimation pressure,"336.83 K, Crystal, Closed cell (Static) method",0.0033 ± 0.00017 kPa
same,vapor or sublimation pressure,"338.81 K, Metastable liquid, Closed cell (Static) method",0.00609 ± 0.00027 kPa
same,vapor or sublimation pressure,"338.83 K, Crystal, Closed cell (Static) method",0.00407 ± 0.0002 kPa
same,vapor or sublimation pressure,"340.8 K, Metastable liquid, Closed cell (Static) method",0.00717 ± 0.0003 kPa
same,vapor or sublimation pressure,"340.83 K, Crystal, Closed cell (Static) method",0.00502 ± 0.00023 kPa
same,vapor or sublimation pressure,"342.78 K, Metastable liquid, Closed cell (Static) method",0.00834 ± 0.00035 kPa
same,vapor or sublimation pressure,"342.8 K, Crystal, Closed cell (Static) method",0.0061 ± 0.00027 kPa
same,vapor or sublimation pressure,"344.77 K, Crystal, Closed cell (Static) method",0.00747 ± 0.00032 kPa
same,vapor or sublimation pressure,"344.79 K, Metastable liquid, Closed cell (Static) method",0.00978 ± 0.0004 kPa
same,vapor or sublimation pressure,"346.69 K, Metastable liquid, Closed cell (Static) method",0.01123 ± 0.00045 kPa
same,vapor or sublimation pressure,"346.73 K, Crystal, Closed cell (Static) method",0.00911 ± 0.00038 kPa
same,vapor or sublimation pressure,"348.72 K, Crystal, Closed cell (Static) method",0.01103 ± 0.00045 kPa
same,vapor or sublimation pressure,"348.73 K, Metastable liquid, Closed cell (Static) method",0.01314 ± 0.00052 kPa
same,vapor or sublimation pressure,"350.68 K, Metastable liquid, Closed cell (Static) method",0.01523 ± 0.00055 kPa
same,vapor or sublimation pressure,"350.7 K, Crystal, Closed cell (Static) method",0.01345 ± 0.00052 kPa
same,vapor or sublimation pressure,"352.63 K, Metastable liquid, Closed cell (Static) method",0.01755 ± 0.00059 kPa
same,vapor or sublimation pressure,"354.6 K, Metastable liquid, Closed cell (Static) method",0.02014 ± 0.00063 kPa
same,vapor or sublimation pressure,"356.63 K, Closed cell (Static) method, Liquid",0.02334 ± 0.00068 kPa
same,vapor or sublimation pressure,"358.57 K, Closed cell (Static) method, Liquid",0.02665 ± 0.00073 kPa
same,vapor or sublimation pressure,"360.48 K, Closed cell (Static) method, Liquid",0.03073 ± 0.00079 kPa
same,vapor or sublimation pressure,"362.45 K, Closed cell (Static) method, Liquid",0.03517 ± 0.00086 kPa
same,vapor or sublimation pressure,"364.45 K, Closed cell (Static) method, Liquid",0.04012 ± 0.00093 kPa
same,vapor or sublimation pressure,"366.47 K, Closed cell (Static) method, Liquid",0.04555 ± 0.001 kPa
same,vapor or sublimation pressure,"368.43 K, Closed cell (Static) method, Liquid",0.05205 ± 0.0011 kPa
same,vapor or sublimation pressure,"370.37 K, Closed cell (Static) method, Liquid",0.05931 ± 0.0012 kPa
same,vapor or sublimation pressure,"372.38 K, Closed cell (Static) method, Liquid",0.06765 ± 0.0014 kPa
same,vapor or sublimation pressure,"374.32 K, Closed cell (Static) method, Liquid",0.07665 ± 0.0015 kPa
same,vapor or sublimation pressure,"376.51 K, Closed cell (Static) method, Liquid",0.08673 ± 0.0016 kPa
same,vapor or sublimation pressure,"378.22 K, Closed cell (Static) method, Liquid",0.09764 ± 0.0018 kPa
same,vapor or sublimation pressure,"380.28 K, Closed cell (Static) method, Liquid",0.1104 ± 0.002 kPa
same,vapor or sublimation pressure,"382.26 K, Closed cell (Static) method, Liquid",0.1243 ± 0.0022 kPa
same,Normal melting temperature,"Crystal, DTA",82.6 ± 0.5 °C
